{"source": "ChEMBL document CHEMBL1142215", "about": "“Site-specific reduction of oxidative and lipid metabolism in adipose tissue of 3'-azido-3'-deoxythymidine-treated rats” (2007)", "key": {"Rattus norvegicus [1]": {"tested_on": "Rattus norvegicus", "experiment": "Increase in body weight in lean Wistar rat at 70 mg/kg/day after 4 weeks", "type": "functional"}, "Rattus norvegicus [2]": {"tested_on": "Rattus norvegicus", "experiment": "Increase in body weight in cafteria-fed Wistar rat at 70 mg/kg/day after 4 weeks", "type": "functional"}, "Rattus norvegicus [3]": {"tested_on": "Rattus norvegicus", "experiment": "Increase in triglyceride level in lean Wistar rat at 70 mg/kg/day relative to control", "type": "functional"}, "Rattus norvegicus [4]": {"tested_on": "Rattus norvegicus", "experiment": "Increase in triglyceride level in cafteria-fed Wistar rat at 70 mg/kg/day relative to control", "type": "functional"}, "Rattus norvegicus [5]": {"tested_on": "Rattus norvegicus", "experiment": "Effect on HDL cholesterol level in lean Wistar rat at 70 mg/kg/day relative to control", "type": "functional"}, "Rattus norvegicus [6]": {"tested_on": "Rattus norvegicus", "experiment": "Effect on HDL cholesterol level in cafteria-fed Wistar rat at 70 mg/kg/day relative to control", "type": "functional"}, "Rattus norvegicus [7]": {"tested_on": "Rattus norvegicus", "experiment": "Effect on LDL cholesterol level in lean Wistar rat at 70 mg/kg/day relative to control", "type": "functional"}, "Rattus norvegicus [8]": {"tested_on": "Rattus norvegicus", "experiment": "Effect on LDL cholesterol level in cafteria-fed Wistar rat at 70 mg/kg/day relative to control", "type": "functional"}, "Rattus norvegicus [9]": {"tested_on": "Rattus norvegicus", "experiment": "Increase in cellularity in cafteria-fed Wistar rat inguinal tissue assessed as DNA content at 70 mg/kg/day", "type": "functional"}, "Rattus norvegicus [10]": {"tested_on": "Rattus norvegicus", "experiment": "Decrease in inguinal adipocyte size in cafteria-fed Wistar rat at 70 mg/kg/day", "type": "functional"}, "Rattus norvegicus [11]": {"tested_on": "Rattus norvegicus", "experiment": "Decrease in epididymal adipocyte size in cafteria-fed Wistar rat at 70 mg/kg/day", "type": "functional, organism-based"}, "Rattus norvegicus [12]": {"tested_on": "Rattus norvegicus", "experiment": "Decrease in cytochrome c oxidase activity in lean Wistar rat inguinal adipose tissue at 70 mg/kg/day by DNA quantification assay", "type": "organism-based"}, "Rattus norvegicus [13]": {"tested_on": "Rattus norvegicus", "experiment": "Decrease in cytochrome c oxidase activity in cafteria-fed Wistar rat inguinal adipose tissue at 70 mg/kg/day by DNA quantification assay", "type": "organism-based"}, "[14]": {"target": "Fatty acid synthase (Rattus norvegicus) (UniProt P12785)", "sequence (P12785 whole entry)": "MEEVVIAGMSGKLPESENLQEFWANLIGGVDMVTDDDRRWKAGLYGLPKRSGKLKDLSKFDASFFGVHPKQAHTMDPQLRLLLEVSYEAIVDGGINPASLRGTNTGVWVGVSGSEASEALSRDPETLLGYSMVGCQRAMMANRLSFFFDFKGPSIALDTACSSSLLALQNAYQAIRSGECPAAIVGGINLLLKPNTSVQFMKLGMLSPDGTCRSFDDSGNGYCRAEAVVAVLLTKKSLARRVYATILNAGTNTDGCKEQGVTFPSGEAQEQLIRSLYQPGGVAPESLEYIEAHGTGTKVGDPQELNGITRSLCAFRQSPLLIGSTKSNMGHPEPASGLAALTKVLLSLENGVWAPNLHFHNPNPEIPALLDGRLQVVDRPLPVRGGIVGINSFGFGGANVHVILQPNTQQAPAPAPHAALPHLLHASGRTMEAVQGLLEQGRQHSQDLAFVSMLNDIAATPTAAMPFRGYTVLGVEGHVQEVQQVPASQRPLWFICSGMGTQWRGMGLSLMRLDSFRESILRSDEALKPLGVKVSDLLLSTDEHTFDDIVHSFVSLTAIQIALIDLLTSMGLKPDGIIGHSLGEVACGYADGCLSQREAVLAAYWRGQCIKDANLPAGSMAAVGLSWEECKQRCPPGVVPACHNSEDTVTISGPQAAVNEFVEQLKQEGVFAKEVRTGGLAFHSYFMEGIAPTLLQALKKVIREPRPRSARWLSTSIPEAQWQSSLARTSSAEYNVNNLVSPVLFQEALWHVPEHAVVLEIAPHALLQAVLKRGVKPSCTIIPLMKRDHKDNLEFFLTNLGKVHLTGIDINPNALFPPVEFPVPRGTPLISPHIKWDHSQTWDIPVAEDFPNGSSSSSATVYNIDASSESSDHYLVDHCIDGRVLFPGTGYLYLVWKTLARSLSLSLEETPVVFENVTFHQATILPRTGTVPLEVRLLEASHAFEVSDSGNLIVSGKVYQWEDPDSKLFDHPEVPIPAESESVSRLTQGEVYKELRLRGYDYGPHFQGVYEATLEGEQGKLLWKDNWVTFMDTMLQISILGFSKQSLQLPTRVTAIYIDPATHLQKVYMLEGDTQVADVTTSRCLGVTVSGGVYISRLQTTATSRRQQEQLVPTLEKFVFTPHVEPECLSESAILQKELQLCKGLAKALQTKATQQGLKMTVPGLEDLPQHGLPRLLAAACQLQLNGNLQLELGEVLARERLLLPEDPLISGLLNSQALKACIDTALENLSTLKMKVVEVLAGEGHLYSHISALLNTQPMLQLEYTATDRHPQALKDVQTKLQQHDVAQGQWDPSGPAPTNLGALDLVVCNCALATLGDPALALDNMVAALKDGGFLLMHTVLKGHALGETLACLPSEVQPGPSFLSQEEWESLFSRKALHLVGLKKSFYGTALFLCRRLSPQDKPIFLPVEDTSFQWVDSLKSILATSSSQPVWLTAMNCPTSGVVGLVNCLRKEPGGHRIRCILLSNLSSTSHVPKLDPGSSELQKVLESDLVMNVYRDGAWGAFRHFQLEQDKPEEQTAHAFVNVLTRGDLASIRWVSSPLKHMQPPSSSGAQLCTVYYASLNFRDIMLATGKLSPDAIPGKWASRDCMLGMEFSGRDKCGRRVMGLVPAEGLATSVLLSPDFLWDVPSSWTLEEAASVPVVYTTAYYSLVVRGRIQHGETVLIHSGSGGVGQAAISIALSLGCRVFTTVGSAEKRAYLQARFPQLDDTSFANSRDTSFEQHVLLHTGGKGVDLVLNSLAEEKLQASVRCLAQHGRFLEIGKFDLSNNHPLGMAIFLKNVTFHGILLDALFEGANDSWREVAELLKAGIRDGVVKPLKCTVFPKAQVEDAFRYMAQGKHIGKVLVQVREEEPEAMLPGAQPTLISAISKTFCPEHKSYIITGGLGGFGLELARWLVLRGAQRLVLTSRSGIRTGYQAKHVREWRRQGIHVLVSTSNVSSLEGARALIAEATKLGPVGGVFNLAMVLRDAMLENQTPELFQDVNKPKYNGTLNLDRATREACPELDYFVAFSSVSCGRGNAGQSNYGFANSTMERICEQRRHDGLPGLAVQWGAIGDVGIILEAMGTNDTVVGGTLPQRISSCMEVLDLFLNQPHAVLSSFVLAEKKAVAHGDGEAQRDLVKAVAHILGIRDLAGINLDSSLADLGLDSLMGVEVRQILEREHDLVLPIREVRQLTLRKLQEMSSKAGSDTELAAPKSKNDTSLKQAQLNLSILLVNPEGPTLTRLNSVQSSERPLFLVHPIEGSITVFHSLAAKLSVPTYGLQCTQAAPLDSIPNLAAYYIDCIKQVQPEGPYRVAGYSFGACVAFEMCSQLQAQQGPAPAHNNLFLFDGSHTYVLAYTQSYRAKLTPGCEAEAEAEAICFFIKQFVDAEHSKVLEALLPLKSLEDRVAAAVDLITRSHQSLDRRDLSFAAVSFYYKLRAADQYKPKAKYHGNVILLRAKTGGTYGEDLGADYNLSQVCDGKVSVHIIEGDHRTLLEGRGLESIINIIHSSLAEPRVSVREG", "experiment": "Decrease in fatty acid synthase activity in lean Wistar rat inguinal adipose tissue assessed at 70 mg/kg/day by DNA quantification assay", "type": "organism-based"}, "[15]": {"target": "Fatty acid synthase (Rattus norvegicus) (UniProt P12785)", "experiment": "Decrease in fatty acid synthase activity in Wistar cafteria-fed rat inguinal adipose tissue at 70 mg/kg/day by DNA quantification assay", "type": "organism-based"}, "Rattus norvegicus [16]": {"tested_on": "Rattus norvegicus", "experiment": "Increase in AMPK phosphorylation level in rat inguinal adipose cells at 70 mg/kg/day", "type": "organism-based"}, "Rattus norvegicus [17]": {"tested_on": "Rattus norvegicus", "experiment": "Effect on AMPK phosphorylation level in rat epididymal adipose cell at 70 mg/kg/day", "type": "organism-based"}, "[18]": {"target": "Fatty acid synthase (Rattus norvegicus) (UniProt P12785)", "experiment": "Decrease in fatty acid synthase activity in lean Wistar rat epididymal adipose tissue assessed at 70 mg/kg/day by DNA quantification assay", "type": "organism-based"}, "[19]": {"target": "Fatty acid synthase (Rattus norvegicus) (UniProt P12785)", "experiment": "Decrease in fatty acid synthase activity in Wistar cafteria-fed rat epididymal adipose tissue at 70 mg/kg/day by DNA quantification assay", "type": "organism-based"}}, "note": "Activity calls are given as the source filed them. The calls are words filed in the database; no cut-off is given here.", "data": [{"smiles": "Cc1cn([C@H]2C[C@H](N=[N+]=[N-])[C@@H](CO)O2)c(=O)[nH]c1=O", "note": "[ZIDOVUDINE]", "values": [{"measurement": "Activity", "setting": "Rattus norvegicus [1]", "result": 401, "unit": "g"}, {"measurement": "Activity", "setting": "Rattus norvegicus [2]", "result": 443, "unit": "g"}, {"measurement": "Activity", "setting": "Rattus norvegicus [3]", "result": 2.11, "unit": "mM"}, {"measurement": "Activity", "setting": "Rattus norvegicus [4]", "result": 1.96, "unit": "mM"}, {"measurement": "Activity", "setting": "Rattus norvegicus [5]", "result": 0.43, "unit": "mM"}, {"measurement": "Activity", "setting": "Rattus norvegicus [6]", "result": 0.32, "unit": "mM"}, {"measurement": "Activity", "setting": "Rattus norvegicus [7]", "result": 0.27, "unit": "mM"}, {"measurement": "Activity", "setting": "Rattus norvegicus [8]", "result": 0.6, "unit": "mM"}, {"measurement": "Activity", "setting": "Rattus norvegicus [9]", "result": 625, "unit": "µg"}, {"measurement": "Activity", "setting": "Rattus norvegicus [10]", "result": 2082, "unit": "um2"}, {"measurement": "Activity", "setting": "Rattus norvegicus [11]", "result": "inactive"}, {"measurement": "Activity", "setting": "Rattus norvegicus [12]", "result": 6.61, "unit": "U/mg"}, {"measurement": "Activity", "setting": "Rattus norvegicus [13]", "result": 6.43, "unit": "U/mg"}, {"measurement": "Activity", "setting": "[14]", "result": 0.72, "unit": "U/mg"}, {"measurement": "Activity", "setting": "[15]", "result": 0.55, "unit": "U/mg"}, {"measurement": "Activity", "setting": "Rattus norvegicus [16]", "result": "Active"}, {"measurement": "Activity", "setting": "Rattus norvegicus [17]", "result": "Active"}, {"measurement": "Activity", "setting": "[18]", "result": "inactive"}, {"measurement": "Activity", "setting": "[19]", "result": "inactive"}]}]}
